# Laboratory results: ChEMBL document CHEMBL1141804, “Cytotoxic sesquiterpene lactones from Vernonia pachyclada from the Madagascar rainforest” (J Nat Prod, 2005)
# pIC50: −log10 of the molar value. *1 amine or outer side, *2 acyl side, *3 side chain or, on linkers, in order; H or OH if unused. Where a SMILES comes first, the peptide text is derived from it. Bridges are numbered along the chain shown (N, C = ends). Roman numbers before positions name the chains, in order. [ ]: non-standard residue; d: D form. Actinocin(1to9) = Cc1c2oc3c(C)ccc(C(=O)[*:2])c3nc-2c(C(=O)[*:1])c(N)c1=O; NMeV = CN[C@H](C(=O)O)C(C)C; Sar = CNCC(=O)O
# Test system: A2780
# Experiment: Cytotoxicity against human A2780 cells
# Assay type: functional, cell-based
row,SMILES,pIC50
1,"Cc1c2oc3c(C)ccc(C(=O)N[C@@H]4C(=O)N[C@H](C(C)C)C(=O)N5CCC[C@H]5C(=O)N(C)CC(=O)N(C)[C@@H](C(C)C)C(=O)O[C@@H]4C)c3nc-2c(C(=O)N[C@@H]2C(=O)N[C@H](C(C)C)C(=O)N3CCC[C@H]3C(=O)N(C)CC(=O)N(C)[C@@H](C(C)C)C(=O)O[C@@H]2C)c(N)c1=O [DACTINOMYCIN] (I: T[dV]P[Sar][NMeV] / II: T[dV]P[Sar][NMeV]; ester I:1-I:C, II:1-II:C; linker I:N-II:N via Actinocin(1to9))",9.10
2,C=C(C)C(=O)O[C@H]1C[C@H](C)[C@@H](OC(C)=O)CC[C@@]2(C)O[C@@H]2[C@H]2OC(=O)C(COC(C)=O)=C12 [GLAUCOLIDE K],5.24
3,C=C(C)C(=O)O[C@H]1C[C@H](C)[C@@H](OC(C)=O)CC[C@@]2(C)O[C@@H]2[C@H]2OC(=O)C(CO)=C12 [GLAUCOLIDE L],4.61
4,C=C(C)C(=O)O[C@H]1C[C@H](C)[C@@H](OC(C)=O)CC[C@@](C)(O)/C=C2/OC(=O)C(COC(C)=O)=C21 [GLAUCOLIDE M],5.48
